From US20210317090A1, “AMINO ACID DEPLETION AGENTS AS ANTIPROLIFERATIVE AGENTS” (University of Central Florida Research Foundation, Inc., priority 2018, published 2021)
Like-named read-outs stand apart in the source and are kept apart here.

Tests used:
[1] = tested on: CHO K1 cells; test: Cytotoxicity dose-response (MTS cell viability) in CHO K1 cells; format: cell-based, Chinese hamster; conditions: 48 h
Experimental: CHO K1 Studies. Wild type Chinese hamster ovary (CHO K1) cells were chosen to first study the synthetic compounds' impact on polyamine metabolism. The CHO K1 cell line has high polyamine transport activity and was useful in screening compounds for their polyamine transport inhibitor activity. A dose-response curve was obtained for each compound to determine their toxicity in CHO K1 cells after 48 h incubation. Compound 9 (1666.177) was non-toxic up to the highest dose tested (15 μM).
(§1) Regarding the biological studies performed in the following examples, it is noted that CHO K1, CHO-MG, and L3.6pl cells were grown in RPMI 1640 medium supplemented with 10% fetal bovine serum (FBS) and 1% penicillin/streptomycin. All cells were grown at 37° C. under a humidified 5% CO2 atmosphere. Aminoguanidine (1 mM used for CHO K1 and CHOMG cells and 250 μM for L3.6pl) was added to the growth medium to prevent oxidation of the compounds of the bovine serum amine oxidase enzyme that is present in calf serum. The cells used were in early to mid log phase and CHO and CHOMG were plated out at 1000 cells/well, whereas the L3.6pl cells were plated at 500 cells/well in a 96 well plate format.
(§2) This example illustrates aspects according to various embodiments pertaining to IC50 determinations and cell viability studies. Cell growth was assayed in sterile 96-well microtiter plates (Costar 3599, Corning, N.Y.). CHO K1 or CHOMG cells were plated at 1,000 cells/70 μL and L3.6pl cells at 500 cells/70 μL. The drug solutions of appropriate concentration in phosphate buffered saline (PBS) were added 10 μL per well after overnight incubation. After drug exposure (e.g., for 48 h for CHO K1 and CHO-MG and 48 h or 72 h for L3.6pl), cell growth was determined by measuring formazan formation from the 3-(4,5dimethylthiazol-2-yl)-5-(3-carboxymethoxyphenyl)-2-(4-sulfenyl)-2H tetrazolium, inner salt (MTS) using SynergyMx Biotek microplate reader for absorbance (490 nm) measurements.^27 All experiments were run in triplicate.

[2] = tested on: L3.6pl human pancreatic cancer cells; test: Cytotoxicity dose-response (MTS) in L3.6pl cells; format: cell-based
Experimental: L3.6pl Studies. Compounds 9 and 10 were evaluated in the metastatic human pancreatic cancer cell line, L3.6pl. L3.6pl has a K-ras mutation, and high polyamine uptake activity.^7 A dose-response curve was obtained for each compound in L3.6pl cells to determine the 72 h L3.6pl IC50 value, described as the dose at which L3.6pl cells were 50% viable compared to the untreated control.
as §1, §2

[3] = tested on: L3.6pl cells; test: Ant-44 toxicity potentiation assay in L3.6pl cells; format: cell-based, human; conditions: Homo sapiens, Ant-44 2 μM, 72 h
Experimental: As performed previously with CHO K1 cells, L3.6pl cells were treated with compounds 9 (1666.177) and 10 (1666.255) and a fixed dose of Ant-44 to observe the potentiation effect. The 72 h IC50 dose of Ant-44 in L3.6pl cells was previously determined to be 4 μM. For this study, half that dose was used to replicate the large window used in the CHO experiments to look at reduction in cell viability. In a 96-well plate, L3.6pl cells were dosed with a fixed concentration of Ant-44 (2 μM) and increasing doses of compounds 9 (1666.177) and 10 (1666.255). Although both compounds were effective at reducing cell viability, higher doses were required compared to CHO K1 cells.
FIG. 6 is an example according to various embodiments, illustrating the ability of compounds 9 (1666.177) and 10 ([…]) to potentiate the effect of Ant-44 in L3.6pl cells. Cells were incubated for 72 h at 37° C. with the respective compound and Ant-44 (2 μM). A 250 μM AG solution was incubated with the cells for 24 h prior to addition of compounds. […] Both compounds are nontoxic at the second highest concentration tested (1 μM).

[4] = tested on: CHO K1 cells; test: cells; format: cell-based, Chinese hamster; conditions: Cricetulus griseus, Ant-44 0.5 μM
Experimental: Various embodiments involve the concept that a non-toxic PTI agent would inhibit the uptake of the cytotoxic polyamine conjugate Ant-44 (11) and rescue cells from Ant-44 induced toxicity. For example, using the IC50 dose of Ant-44, PTIs could be identified by measuring a compound's ability to block Ant-44 entry and rescue cells back to >90% viability. […] This toxic dose of Ant-44 was kept constant throughout the assay, while the candidate PTI compound was added in increasing concentrations up to its MTD.
Compounds (9 and 10) were tested at 5 μM and 7 μM. CHO K1 cells were treated in a 96-well plate with a toxic dose of Ant-44 (2.4 μM) alone and dosed with the candidate compounds (at 5 μM and 7 μM) and incubated for 48 h at 37° C.
To further explore this effect, development of various embodiments included modifying an original screen to use a lower dose of Ant-44 (0.5 μM) to improve the dose range of 9 and 10 that could be tested. In this regard, Ant-44 was dosed at 0.5 μM alone and in combination with increasing doses of compounds 9 (1666.177) and 10 (1666.255) and the CHO K1 cells were incubated for 48 h at 37° C., and the results are shown in FIG. 5. The red line represents the % cell viability of the Ant-44 only control. The Ant44 potentiation assay EC50 value is defined as the concentration of the candidate compound required to decrease the cell viability to half that of the Ant-44 only control. Both compounds 9 and 10 were effective at decreasing cell viability, when used in combination with Ant-44 in a dose dependent fashion.
FIG. 5 is an example according to various embodiments, illustrating potentiation of Ant-44 toxicity by compounds 9 and 10 in CHO K1 cells. Cells were incubated for 48 h at 37° C. with the respective compound and a fixed concentration of cytotoxic Ant-44 (0.5 μM). A 1 mM AG solution was incubated with the CHO K1 cells for 24 h prior to the addition of candidate compound. This was necessary to protect Ant-44 from the amine oxidases present in the media containing fetal bovine serum. […] Both compounds are nontoxic at the highest concentration tested (5 μM).

[5] = tested on: CHO K1 cells; conditions: previously determined (ref 7), read-out: 48 h IC50; cited from earlier work
[6] = target: T1, LAT-1 (Homo sapiens, UniProt Q01650); test: 3H-Leucine efflux assay; format: cell-based; conditions: L3.6pl, 2 min; JPH-203 30 μM or compound 10 20 μM
T1 construct: endogenous in cells; host or cells: L3.6pl human pancreatic cancer cells
T1 sequence (Q01650 whole entry): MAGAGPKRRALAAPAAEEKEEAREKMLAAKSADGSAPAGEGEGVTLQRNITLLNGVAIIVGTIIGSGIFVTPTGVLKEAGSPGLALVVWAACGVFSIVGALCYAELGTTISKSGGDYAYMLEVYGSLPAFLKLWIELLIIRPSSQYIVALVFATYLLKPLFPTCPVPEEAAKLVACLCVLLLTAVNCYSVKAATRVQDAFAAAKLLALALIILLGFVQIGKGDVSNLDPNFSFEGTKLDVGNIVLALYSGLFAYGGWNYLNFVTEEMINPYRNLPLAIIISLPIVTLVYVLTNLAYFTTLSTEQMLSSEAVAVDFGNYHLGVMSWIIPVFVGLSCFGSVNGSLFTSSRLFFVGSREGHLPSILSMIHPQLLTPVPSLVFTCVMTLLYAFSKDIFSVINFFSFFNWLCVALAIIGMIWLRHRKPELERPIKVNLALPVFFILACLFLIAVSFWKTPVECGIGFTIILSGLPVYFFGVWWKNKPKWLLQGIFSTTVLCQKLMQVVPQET
T1 sequence (P08195 102-630 partner): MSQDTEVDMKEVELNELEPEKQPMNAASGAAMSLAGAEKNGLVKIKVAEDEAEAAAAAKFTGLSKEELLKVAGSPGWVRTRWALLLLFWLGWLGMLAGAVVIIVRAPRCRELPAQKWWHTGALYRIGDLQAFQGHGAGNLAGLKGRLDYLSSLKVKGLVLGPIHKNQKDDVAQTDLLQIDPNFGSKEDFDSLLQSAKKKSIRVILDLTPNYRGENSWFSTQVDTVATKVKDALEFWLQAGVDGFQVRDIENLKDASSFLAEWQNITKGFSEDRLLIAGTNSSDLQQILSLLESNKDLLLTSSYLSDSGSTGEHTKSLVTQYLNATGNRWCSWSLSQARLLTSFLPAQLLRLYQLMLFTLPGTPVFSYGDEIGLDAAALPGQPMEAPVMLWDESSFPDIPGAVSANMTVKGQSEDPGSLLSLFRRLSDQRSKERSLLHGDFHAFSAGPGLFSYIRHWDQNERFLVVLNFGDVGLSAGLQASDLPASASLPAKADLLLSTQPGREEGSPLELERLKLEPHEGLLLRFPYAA
From the text: JPH203 is not toxic to L3.6pl cells over this concentration range and time interval. FIG. 10E is an example according to various embodiments, illustrating results obtained for a Leu uptake inhibition experiment with compound 10. Note: the y-axis in FIG. 10E is in CPM per ug of protein to normalize the data and account for any potential losses of cells due to toxicity of compound 10. FIG. 10F is an example according to various embodiments, illustrating results obtained for a Leucine efflux experiment with LAT-1 inhibitor JPH-203. Briefly, the efflux procedure involved cells pre-incubated with ‘hot’ leucine (3H labeled) and washed to remove unbound radiolabeled Leucine. The cells were then incubated in the presence and absence of unlabeled Leucine (100 μM) and/or the LAT-1 inhibitor JPH-203 (30 μM). In the presence of unlabeled leucine, the cells released ‘hot’ 3H-leucine into the media which was measured via scintillation/radioactivity counts. This efflux or release from within the cell was inhibited by the presence of the LAT-1 inhibitor, JPH-203 (30 μM, FIG. 10F). Since JPH203 inhibits the import of unlabeled leucine then less unlabeled Leucine will enter the cell and less efflux of radiolabeled Leucine molecules from inside the cell will be observed. This is consistent with JPH-203 being a LAT-1 inhibitor. FIG. 10G is an example according to various embodiments, illustrating results obtained for a two minute Leucine efflux experiment with compound 10. Cells were pre-incubated with ‘hot’ leucine (^3H labeled) and washed to remove unbound radiolabeled Leucine. The cells were then incubated in the presence and absence of unlabeled “cold” Leucine (100 μM) and/or the compound 10 (20 μM). In the presence of unlabeled ‘cold’ leucine, the cells released ‘hot’ ^3H-leucine into the media which was measured via scintillation/radioactivity counting. […] The efflux experiment was repeated and the time for monitoring efflux increased to 30 minutes. […] In summary, compound 10 inhibits Leucine uptake and facilitates LAT-1 mediated efflux.
^3H-Leucine Efflux Assay ^3H-Leucine efflux experiments were performed according to the protocol developed by Hälfliger et al. (2018) (referenced below) with the following changes. Briefly, cells were preloaded with 12 μM stock of L-[^3H]leucine (79 Ci/mmol) to give a final concentration of ^3H-leucine was 1.2 μM in each well. […] The medium was then collected and mixed with scintillation fluid (Scintiverse™ BD Cocktail) and radioactivity measured (Beckman Coulter LS 6500 Multi-Purpose Scintillation Counter). […] The lysate (300 μL) was mixed with scintillation fluid and radioactivity was counted. Relative efflux was expressed as percentage radioactivity=100%×(radioactivity of medium)/(radioactivity of the medium+radioactivity of the cells). […]

[7] = target: T1, LAT-1; test: 3H-Leucine uptake assay; format: cell-based; conditions: L3.6pl cells, increasing concentration, 15 min uptake (FIG. 10D, 10E)
Experimental: ^3H-Leucine uptake experiments were performed according to the protocol developed by Hälfliger et al. (2018) (referenced below with the following changes. Briefly, cells were seeded at 60% confluency in a 24-well plate and incubated for 4 h at 37° C. After 4 hours, different concentrations of compound 10 were added and the cells were then incubated overnight. L-^3H-leucine uptake inhibition was measured for 15 minutes using a 12 μM stock of L-[^3H]leucine (79 Ci/mmol). The final concentration of ^3H-leucine in each well was 1.2 uM. This concentration produced a CPM reading of ˜4000 cpm for the control. Uptake was terminated by removing the buffer solution followed by washing the cells with cold Na^+-free Hank's Balanced Salt Solution. Cells were then lysed to give ˜500 μL of cell lysate. A portion of the cell lysate (200 μL) was mixed with Scintiverse™ BD Cocktail for determining radiocounts. The radioactivity was measured with a scintillation counter (Beckman Coulter LS 6500 Multi-Purpose Scintillation Counter). Another portion of the cell lysate (300 μL) was used for protein determination using the BCA method. The final data was expressed as cpm/microgram of protein to account for the different number of cells remaining after the experiment. This was necessary because compound 10 was toxic and less cells were present after the overnight incubation (24 h). […]

Q: With CC(C)(C)CCN1CCN(C(CNCc2ccccc2)Cc2ccccc2)CC1Cc1ccccc1.Cl.Cl.Cl (stereo not drawn) [Compound 9, Benzyl-{2-[3-benzyl-4-(3,3-dimethyl-butyl)-piperazin-1-yl]-3-phenyl-propyl}-amine trihydrochloride salt] as the compound, how does the “toxicity of compound alone” value ([1]; CHO K1, highest concentration tested (5 μM)) read?
A: The value was “nontoxic”.

Q: What about the “toxicity (dose-response curve)” value ([1]; CHO K1 cells, up to the highest dose tested (15 μM)) of the same compound?
A: The value was “non-toxic”.

Q: And the IC50 ([2]; Homo sapiens, L3.6pl cells, 72 h, read-out: 72 h IC50)?
A: Its IC50 is 11.7 ± 0.9 µM.

Q: And the “toxicity of compound alone” value ([2]; L3.6pl, second highest concentration tested (1 μM), 72 h)?
A: The value was “nontoxic”.

Q: And the EC50 [3]?
A: The EC50 was 3.27 ± 0.17 µM.

Q: What about the EC50 ([4]; CHO K1 cells, 48 h (FIG. 5), read-out: Ant-44 potentiation EC50) of the same compound?
A: The EC50 was 0.75 µM.

Q: And the EC50 ([4]; CHO cells, 48 h, read-out: Ant44 potentiation assay EC50)?
A: Its EC50 is 0.75 µM.

Q: With NCCC[C@](N)(C(=O)O)C(F)F [DFMO, α-difluoromethylornithine] as the compound, how does the IC50 [5] read?
A: Its IC50 is 4200 µM.

Q: For Nc1cc(COc2c(Cl)cc(C[C@H](N)C(=O)O)cc2Cl)c2oc(-c3ccccc3)nc2c1 [JPH-203, reference compound], which “toxicity to L3.6pl cells” value ([2]; over the concentration range and time interval of the uptake experiment) is on record?
A: The value was “not toxic”.

Q: What about the “3H-leucine efflux stimulated by unlabeled Leucine (100 μM)” value [6] of the same compound?
A: Its value is “inhibited”.

Q: What about the “3H-leucine efflux, compound alone” value [6] of the same compound?
A: The value was “modestly stimulated efflux”.

Q: And the 3H-Leucine uptake [7]?
A: The 3H-Leucine uptake was “dose dependent decrease in 3H-Leucine uptake”.
